Measurements taken from patent publication US20140325707A1, “GROWTH ENHANCEMENT OF PLANTS” (Yissum Research Development Company of the Hebrew …, priority 2011, published 2014).

What was measured:
[1] = system: tomato (Solanum lycopersicum) cv Moneymaker; assay: Growth assay of tomato seedlings from seeds primed with IR-PRN; assay type: in vivo
Protocol: Seeds of tomato (Solanum lycopersicum) cv Moneymaker were primed with a priming solution containing 25% PEG without (control) or with IR-PRN.
The seeds were sown in randomly placed small tagged pots containing potting mixture, in a glasshouse at a night and day temperature of 15-18° C. and 22-27° C., respectively. Plant height, weight and dry weight were measured when the plant reached 3-5 true leaves. Typically the seedlings were 4-5 weeks old.

[2] = system: Rhizoctonia solani; assay: Bioassay for inhibition of Rhizoctonia solani in vitro; assay type: cell-based; conditions: plant-extracted, HPLC-purified PRN; 28° C., 3 days
Protocol: R. solani was cultured on potato dextrose agar at 28° C. A disk (30 mm in diameter) of R. solani-containing agar was transferred to another Petri dish containing potato dextrose agar and 10 μl of HPLC elution buffer (negative control), 10 μl of various plant extracts, or 10 μl containing 0.2 mg of synthetic PRN in elution buffer (Sigma, positive control). Inhibition of fungal growth was determined after incubation at 28° C. for 3 days.

[3] = system: R. solani; assay: Assay for R. solani resistance (damping-off disease) of tomato plants; assay type: in vivo; conditions: control plants wilted within 2 weeks
Protocol: Roots of tomato (Solanum lycopersicum) seedlings were immersed in a water solution of IL-60-BS and IR-PRN or IR-PRN-GFP (1 μg/plantlet) until the entire solution was sucked up by the plants. The plants were then potted and kept in the greenhouse at 24° C. Tomato seedlings, 2 weeks after application of IL-60-BS and IR-PRN, were transferred to pots with 0.5 kg of soil mixed with 0.5 g of R. solani mycelium. Control plants (not carrying PRN) were similarly treated. Plants were kept for 2 to 3 weeks at 24° C. until symptom appearance.

[4] = plant expressing PRN, seedlings at 3-5 true leaves, 4-5 weeks old

Compound: O=[N+]([O-])c1c(Cl)cccc1-c1c[nH]cc1Cl [PRN, 3-chloro-4-(2′-nitro-3′-chlorophenyl)-pyrrole]
- Dry weight [1, 4]: 3.6 gr
- Dry weight (% of fresh weight) [1, 4]: 42.7 % of fresh weight
- Fresh weight [1, 4]: 9.2 gr
- Height [1, 4]: 11 cm
- Growth Enhancement (%), Dry weight ([1]; relative to control plant): 276.9%
- Growth Enhancement (%), Dry weight (% of fresh weight) ([1]; relative to control plant): 159.9%
- Growth Enhancement (%), Fresh weight ([1]; relative to control plant): 191.7%
- Growth Enhancement (%), Height ([1]; relative to control plant): 134.1%
- Inhibition of growth of R. solani [2]: inhibitory
- State of plants in R. solani-infested soil [3]: remained healthy
